Where only a bound is given, the exact number is not on record here.

The text below walks through data of patent US20230127442A1, “COMPOSITIONS FOR INCREASING ETHANOL PRODUCTION AND RELATED METHODS” (KEMIN INDUSTRIES, INC., priority 2021, published 2023).

Experiment [1] concerns yeast. Put plainly: Corn mash fermentation with synthetic antioxidants, 24 hours at 33° C. then heat stress at 37° C. to 72 hours, ethanol by HPLC (Example 6). The conditions noted are these: for increase in ethanol content at 24 hour compared to control: before heat stress. The format is cell-based. From the text:
(§1) Lutein (FloraGLO®): Lutein crystals were purified from marigolds and suspended in oil. Acerola extract (Fortium® A): Acerola fruit grown from Malpighia emarginata, water extract. Spearmint Extract (Neumentix®): Spearmint leaves grown from Mentha spicata L. (Kemin Industries, Inc. proprietary lines KI-MsEM0042, KI-MsEM0110), water extract. Aqueous Tea Extract (AssuriTEA® Green): Tea leaves grown from Camellia sinensis, water extract. Solvent Extracted Tea (Fortium® GT107): Tea leaves grown from Camellia sinensis and extracted with acetone and ethyl acetate, solvent extract. Rosemary Extract (Fortium® M): Rosemary leaves grown from Rosmarinus officinalis extracted with either acetone and TFE or ethanol. Mixed Tocopherols (Fortium® MT): Mixed tocopherols are extracted from vegetable oils with hexane, ethanol, and methanol. Lipid-Soluble Green Tea (GT-FORT): Tea leaves grown from Camellia sinensis and extracted with ethyl acetate, dichloromethane, and ethanol. Synthetic antioxidants: TBHQ (tert-butylhydroquinone) and BHT (butylated hydroxytoluene); tert-butlyhydroquinone was solubilized in propylene glycol and butylated hydroxytoluene was solubilized in ethanol. In alternative embodiments, the synthetic antioxidants are suspended in liquid or solubilized in liquid, including but not limited to water and organic solvents or combinations thereof.
Dry yeast was added to corn mash containing urea, protease, phytase, and glucoamylase. tert-Butylhydroquinone (0.0001, 0.001, or 0.01 mg/L) and butylated hydroxytoluene (0.0001, 0.001, or 0.01 mg/L were added to the corn mash. Corn mash containing no antioxidants was included in the experiment as a Control. The corn mash was fermented in a temperature-controlled incubator shaker for 24 hours at 33° C. Following 24 hours, the yeast in the corn mash were subjected to heat stress by increasing the temperature to 37° C. and the corn mash fermented for another 48 hours for a total fermentation time of 72 hours. Ethanol levels were measured by HPLC.

For experiment [2], the system named is yeast. Put plainly: Corn mash fermentation, 48 hours, heat stress at 38° C. after 24 hours, ethanol by HPLC (Example 1). The format is cell-based. The settings on record: 48 hours total, heat stress 38° C. for last 24 hours.
Description: as §1
Dry yeast was added to corn mash containing urea, protease, phytase, and glucoamylase. Lutein, a fat-soluble antioxidant, was added to the mash at 200, 1,000, or 2,000 mg/L. Dried aqueous tea extract or spearmint extract containing antioxidants were added to the corn mash at 100, 1,000, or 5,000 mg/L. Corn mash containing no added antioxidants was included in the experiment as a control group (Control). The corn mash was fermented in a temperature-controlled incubator shaker for 24 hours at 33° C. Following 24 hours, the yeast in the corn mash were subjected to heat stress by increasing the temperature to 38° C. and the corn mash fermented for another 24 hours for a total fermentation time of 48 hours. Ethanol levels were measured by HPLC.

As to `Cc1cc(C(C)(C)C)c(O)c(C(C)(C)C)c1` [butylated hydroxytoluene], in experiment [1] (72 hours, following heat stress 37° C., 0.0001, 0.001 or 0.01 mg/L), the “change of ethanol content of corn mash through 72 hours compared to control” value is “slightly decreased”.

As to `CC1=C[C@H](O)CC(C)(C)[C@H]1/C=C/C(C)=C/C=C/C(C)=C/C=C/C=C(C)/C=C/C=C(C)/C=C/C1=C(C)C[C@@H](O)CC1(C)C` [lutein, Lutein], the “increase in ethanol content of corn mash compared to Control” value was 4% in experiment [2] (200 mg/L), 7% in experiment [2] (1,000 mg/L) and 10% in experiment [2] (2,000 mg/L).

With `CC(C)(C)c1cc(O)ccc1O` [tert-Butylhydroquinone, tert-butylhydroquinone], the “increase in ethanol content at 24 hour compared to control” value in experiment [1] (0.0001 mg/L, first 24 hours at 33° C.) is given as “up to 0.4%”; in experiment [1] (0.01 mg/L, first 24 hours at 33° C.), “up to 1.8%”. For the same compound, in experiment [1] (72 hours, following heat stress 37° C., highest increase among 0.0001, 0.001 or 0.01 mg/L), the “increase in ethanol content at 72 hour compared to control” value is at most 2.8%. The “change of ethanol content of corn mash over the first 24 hours compared to control” value in experiment [1] (first 24 hours at 33° C., FIG. 17, 0.0001, 0.001 or 0.01 mg/L) is “decreased”.
